Data as given in patent publication EP4512398A1, “FLURALANER FOR USE IN METHODS OF TREATMENT AND PREVENTION OF SEA LICE INFESTATION IN FISH” (Bimeda Animal Health Limited, priority 2023, dated 2025).

How the values were obtained:
L. salmonis = experiment: proof-of-concept efficacy experiment: fluralaner in feed to sea-lice-infected farmed Atlantic salmon, lice counts; assay type: in vivo; conditions: for Average lice per fish / Total lice: 15 salmon sampled
Method: (§1) A proof-of-concept experiment was carried out to determine the efficacy of fluralaner as a treatment for L. salmonis in farmed Atlantic salmon. Salmon infected with sea lice were divided evenly into three tanks, 41 fish per tank. Tank A acted as a control and no fluralaner was administered to the salmon, Tank B was given a low dog dose (25 mg/ kg of body weight) treatment and Tank C was given a high dog dose treatment (56 mg/ kg body weight). (See bravecto-epar-product-information attached for dosing rates). The powdered form of the drug was administered by mixing with standard aquaculture salmonid feed using fish oil as a binder. The experiment lasted for one week, between the 4/08/23 and the 11/08/23.

Atlantic salmon = experiment: mortality, adverse effects and behaviour of treated salmon in the proof-of-concept trial; assay type: in vivo
Method: as §1
Samples have been retained for histology and residue testing.

[1] = Tank B, 25 mg/ kg of body weight oral in feed, 04/08/2023 (start of experiment, baseline)
[2] = Tank C, 56 mg/ kg body weight oral in feed, 04/08/2023 (start of experiment, baseline)

In the case of Cc1cc(C2=NOC(c3cc(Cl)cc(Cl)c3)(C(F)(F)F)C2)ccc1C(=O)NCC(=O)NCC(F)(F)F (stereo not shown) [fluralaner, Fluralaner], the “Average lice per fish” value (L. salmonis; [1]) was 25.8, the Total lice (L. salmonis; [1]) was 387 and the “Average lice per fish” value (L. salmonis; Tank B, 25 mg/ kg of body weight oral in feed, 11/08/2023 (after one week), control Tank A 21.9) was 0.1. The Total lice (L. salmonis; Tank B, 25 mg/ kg of body weight oral in feed, 11/08/2023 (after one week), control Tank A 329) was 1, the “Average lice per fish” value (L. salmonis; [2]) was 23.3 and the Total lice (L. salmonis; [2]) was 350. The “Average lice per fish” value (L. salmonis; Tank C, 56 mg/ kg body weight oral in feed, 11/08/2023 (after one week), control Tank A 21.9) was 0, the Total lice (L. salmonis; Tank C, 56 mg/ kg body weight oral in feed, 11/08/2023 (after one week), control Tank A 329) was 0 and the “total lice numbers on the salmon that received the treatment” value (L. salmonis; after one week, control tank remained high) was “significantly reduced”. For the same compound, the “efficacy in treating L. salmonis in Atlantic salmon” value (L. salmonis; preliminary study, oral in feed, 25 and 56 mg/kg) was “highly effective”, the mortalities (Atlantic salmon; during the trial period or since its discontinuation) was “no mortalities” and the “adverse effects on the salmon” value (Atlantic salmon; trial period) was “no obvious adverse effects”. The “behaviour of the salmon” value (Atlantic salmon; trial period) was “normal”.
